Values after ≈ are worked out from the molar mass of the structure shown.
Experiments:
[1] = biological target: T1, α2A receptor (Homo sapiens, UniProt P08913); experiment: PRESTO-TANGO β-arrestin recruitment; assay type: cell-based
T1 construct: TANGO fusion module (own knowledge, Kroeze et al.: C-terminal V2 tail, TEV site and tTA); 1000000068; host or cells: HTLA (HEK293-derived)
T1 sequence (P08913 1-465): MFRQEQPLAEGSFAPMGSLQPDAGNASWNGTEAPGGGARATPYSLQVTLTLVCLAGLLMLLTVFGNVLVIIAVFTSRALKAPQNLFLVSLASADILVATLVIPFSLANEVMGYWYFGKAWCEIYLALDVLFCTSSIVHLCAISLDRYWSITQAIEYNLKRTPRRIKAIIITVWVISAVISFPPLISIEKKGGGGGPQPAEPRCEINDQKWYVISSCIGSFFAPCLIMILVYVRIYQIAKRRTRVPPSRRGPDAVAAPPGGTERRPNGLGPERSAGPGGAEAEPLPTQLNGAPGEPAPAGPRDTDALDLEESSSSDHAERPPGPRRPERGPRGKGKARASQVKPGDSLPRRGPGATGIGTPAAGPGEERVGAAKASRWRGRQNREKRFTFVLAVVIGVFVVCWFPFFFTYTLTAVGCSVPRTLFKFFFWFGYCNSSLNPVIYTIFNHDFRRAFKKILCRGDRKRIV
Experimental: Assessment of receptor activation by compounds at all human aminergic receptors were carried out using a modified version of the PRESTO-TANGO method. […] The plate was spun down, and 5 μl of a 1:25 dilution (in DPBS) of polyethylenimine (PEI) derivative (Transporter 5, Polysciences) was added (1:4 cDNA to PEI ratio) and incubated for 20 min at room temperature (RT). […] Luminescence signal was detected using a plate-reader (SPARK, Tecan) with 100-ms integration time and a 100-ms delay between well reads.

[2] = Thermodynamic solubility; assay type: physicochemical; conditions: 100 mM potassium phosphate buffer, aqueous buffer, thermodynamic from solid, 100 mM KPO4-buffer pH 7.4, 37°C
Experimental: Thermodynamic solubility assay used solid form of compound 65. Solid test compound (~2 to 3 mg) was weighed in a glass high-performance liquid chromatography (HPLC) vial, and 100 mM KPO4-buffer (pH 7.4) was added to give a theoretical max concentration if everything is dissolved of ~5 to 6 mg/ml. The vial was incubated at 900 rpm and 37°C in a rotational shaker for 24 hours. After the incubation, an aliquot (200 μl) was transferred to a glass insert and centrifuged at 10,000g and 37°C for 20 min to separate any solid material from the solution. The supernatant was transferred to a new HPLC vial and analyzed by LC-MS/MS.

[3] = Caco-2 cells permeability assay; assay type: in vitro ADME; conditions: human
Experimental: Caco-2 cell monolayers (passages: 94 to 105) were grown on permeable filter support and used for transport study on day 21 after seeding. Before the experiment, a drug solution of 10 μM was prepared and warmed to 37°C. The Caco-2 filters were washed with pre-warmed HBSS before the experiment, and, thereafter, the experiment was started by applying the donor solution on the apical or basolateral side. The transport experiments were carried out at pH 7.4 in both the apical and basolateral chamber. The experiments were performed at 37°C and with a stirring rate of 500 rpm. The receiver compartment was sampled at 15, 30, and 60 min, and, at 60 min, also a final sample from the donor chamber was taken to calculate the mass balance of the compound. The samples (100 μl) were transferred to a 96-well plate containing 100 μl of methanol, and Warfarin as internal standard and was sealed until LC-MS/MS analysis.

[4] = In vivo pharmacokinetics, plasma and brain; design: species or system mice
Experimental: Brains were collected and snap-frozen. Blood was sampled from the cervical vein upon decapitation in Eppendorf tubes containing 50 μl of 0.5 M EDTA and immediately centrifuged for 10 min at 3000g and 4°C. Isolated plasma was then transferred into clean polypropylene tubes. All samples were stored at −20°C before analysis.
Brains were weighed and homogenized 1:3 (w/v) in PBS using a Minilys Bead Homogenizer (Bertin Instruments). […] Samples were precipitated with acetonitrile (1:4) containing warfarin as analytical internal standard. The supernatants were injected into the LC-MS/MS system consisting of a TQ-S micro mass spectrometer coupled to an Acquity UPLC (Waters Corp, MA, USA). […] The obtained concentrations of brain homogenate samples were multiplied by 4 to account for the dilution during preparation of the homogenate. Pharmacokinetic parameters were determined from the experimental data by applying non-compartmental analysis using Microsoft Excel spreadsheet. The brain-to-plasma partition coefficient (Kp,brain) was calculated as the ratio of the area under the concentration–time curves (AUC) in brain versus plasma (AUCbrain/AUCplasma).

[5] = test system: TAAR1-WT and TAAR1-KO mice; experiment: Core-body temperature (CBT) measurement; assay type: in vivo
Experimental: Core temperature was determined by a rectal thermoprobe. Compounds or vehicle was administered intraperitoneally. A basal measurement was performed immediately before injection. Measurements were repeated every 30 min for 2 hours. Mean changes in CBT were calculated by subtracting the value from vehicle treated group at the corresponding time point. A washout of 1 week between different doses of compound 65 was applied, and mice were injected starting with the lowest dose first.

[6] = Metabolic stability in liver microsomes; conditions: human liver microsomes, 1 μM
[7] = Metabolic stability in liver microsomes; conditions: mouse liver microsomes, 1 μM

Structure (SMILES): CC1=C(c2ccco2)CNCC1 [Compound 65]
- EC50 [1]: 1 µM
- Emax ([1]; concentration-response curves): 110%
- agonism at the α2A receptor ([1]; panel screen): agonism
- solubility at 24 h [2]: 50 mM (≈ 8160 µg/mL)
- efflux ratio at 60 min, 10 μM [3]: 2.2
- Papp A→B at 60 min, 10 μM ([3]; apical-to-basal, 10 μM, pH 7.4): 77 ×10⁻⁶ cm/s
- Papp B→A at 60 min, 10 μM ([3]; basal-to-apical, 10 μM, pH 7.4): 168 ×10⁻⁶ cm/s
- Clearance ([4]; after intraperitoneal administration, 1 mg/kg, mice, estimated): 225 ml/min per kg
- brain concentration by 4 hours ([4]; below lower limit of quantification, mice, i.p. 1 mg/kg): < 40 pmol/g
- Kp ([4]; male, C57BL/6, mouse, brain and plasma, intraperitoneal, 1 mg/kg, total concentrations, AUCbrain/AUCplasma, read-out: brain-to-plasma partition coefficient Kp,brain): 7.9
- half-life ([4]; male, C57BL/6, mouse, ip, plasma, mice, intraperitoneal 1 mg/kg): 17 min
- concentration at 4 h ([4]; male, C57BL/6, mouse, plasma, ip, below lower limit of quantification, mice, i.p. 1 mg/kg): < 5 nM
- Cmax ([4]; male, C57BL/6, mouse, plasma, ip, mice, intraperitoneal 1 mg/kg, read-out: maximum plasma concentration (Cmax)): 850 ± 172 nM
- Tmax ([4]; male, C57BL/6, mouse, plasma, ip, mice, intraperitoneal 1 mg/kg, read-out: time to maximum plasma concentration): ≤ 5 min
- maximum concentration in brain ([4]; mice, intraperitoneal 1 mg/kg): 4707 ± 766 pmol/g
- time to maximum brain concentration ([4]; mice, intraperitoneal 1 mg/kg): ≤ 5 min
- volume of distribution (V) ([4]; mice, intraperitoneal 1 mg/kg): 6.3 L/kg
- effect on CBT ([5]; TAAR1-KO mice): no decrease in CBT was observed
- maximal reduction of CBT, 5 mg/kg versus 1 mg/kg ([5]; TAAR1-WT mice): did not observe a significant increase in the maximal reduction of CBT
- time of peak CBT reduction after injection ([5]; TAAR1-WT mice, 0.5 and 1 mg/kg): 30 min
- time to return of CBT to baseline ([5]; TAAR1-WT mice, 0.5 and 1 mg/kg): 2 h
- effect on CBT ([5]; TAAR1-WT mice, 0.5 and 1 mg/kg i.p.): reduction of CBT
- extent of CBT reduction ([5]; WT mice, 1 mg/kg, 30 and 60 min after injection): ~ 1 °C
- intrinsic clearance CLint [6]: 16 μl/min per mg
- intrinsic clearance CLint [7]: 7 μl/min per mg
